This note sets out measurements from US5863889A, “ICAM-1/LFA-1 short-chain peptides and method of using same” (The University of Kansas, priority 1996, dated 1999).

Data set [1] concerns Molt3 cells. As to the kind of experiment: Cell metabolic assay (MTT). The class given is cell-based. The protocol: After taking the photographs in Example 3 (and in some instances no photographs were taken), cell metabolic activity was assessed by an MTT assay. A 37.5 μl portion of MTT dye (purchased from SIGMA of St. Louis, Mo.), i.e., 3-[4,5-dimethyl thiazole-2yl]-2, 5- diphenyl tetrazolium bromide; thiazolyl blue) was added to each well, and incubated with the cells at 37° C. for about six hours. After incubation, a 250 μl quantity of a MTT solubilization solution (of a type that may be purchased from either Fischer Scientific of St. Louis, Mo. or BCD Labs of Lawrence, Kans.) was added to each well, and incubated with the cells at room temperature overnight. In the morning, the spectrophotometric absorption of each plate was determined at 570 nm in a microplate ELISA reader manufactured by Cambridge Technologies of Water-town, Mass., in order to assess cell viability as an indicator of potential peptide toxicity.

In the next data set the target is T1, LFA-1 (CD11a) (Homo sapiens, UniProt P20701).
T1 construct: host or cells: Molt3 human T-cell leukemia line
T1 sequence (P20701 26-1170): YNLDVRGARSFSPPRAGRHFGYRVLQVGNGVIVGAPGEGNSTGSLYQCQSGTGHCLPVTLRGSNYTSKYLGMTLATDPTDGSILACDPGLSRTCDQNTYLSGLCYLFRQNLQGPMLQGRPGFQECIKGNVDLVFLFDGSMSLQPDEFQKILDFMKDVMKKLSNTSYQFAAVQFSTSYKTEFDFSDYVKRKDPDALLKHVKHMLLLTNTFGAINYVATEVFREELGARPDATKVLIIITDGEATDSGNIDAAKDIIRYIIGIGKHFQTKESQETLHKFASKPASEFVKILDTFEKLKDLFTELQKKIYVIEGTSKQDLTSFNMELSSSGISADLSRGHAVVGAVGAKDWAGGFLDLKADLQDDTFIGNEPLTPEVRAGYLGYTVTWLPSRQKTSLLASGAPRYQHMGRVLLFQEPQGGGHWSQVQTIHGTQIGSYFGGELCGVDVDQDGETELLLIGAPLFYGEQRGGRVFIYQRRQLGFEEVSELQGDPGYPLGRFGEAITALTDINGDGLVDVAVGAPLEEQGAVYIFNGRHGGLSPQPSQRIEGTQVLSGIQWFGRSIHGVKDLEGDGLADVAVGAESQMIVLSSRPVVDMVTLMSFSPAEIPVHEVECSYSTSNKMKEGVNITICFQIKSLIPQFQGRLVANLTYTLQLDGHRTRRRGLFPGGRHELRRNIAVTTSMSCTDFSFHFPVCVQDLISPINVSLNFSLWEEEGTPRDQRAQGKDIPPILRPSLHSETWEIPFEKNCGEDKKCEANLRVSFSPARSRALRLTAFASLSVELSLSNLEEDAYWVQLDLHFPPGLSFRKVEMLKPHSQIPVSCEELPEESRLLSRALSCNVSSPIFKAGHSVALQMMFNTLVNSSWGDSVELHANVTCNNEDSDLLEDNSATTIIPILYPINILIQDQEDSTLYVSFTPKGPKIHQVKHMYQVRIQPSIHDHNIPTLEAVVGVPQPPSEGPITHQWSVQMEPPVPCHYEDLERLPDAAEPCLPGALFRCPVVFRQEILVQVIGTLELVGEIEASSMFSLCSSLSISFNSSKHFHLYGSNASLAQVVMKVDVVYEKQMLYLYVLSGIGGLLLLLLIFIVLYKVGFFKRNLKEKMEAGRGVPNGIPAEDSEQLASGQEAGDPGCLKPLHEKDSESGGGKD
T1 sequence (P05107 23-769 partner): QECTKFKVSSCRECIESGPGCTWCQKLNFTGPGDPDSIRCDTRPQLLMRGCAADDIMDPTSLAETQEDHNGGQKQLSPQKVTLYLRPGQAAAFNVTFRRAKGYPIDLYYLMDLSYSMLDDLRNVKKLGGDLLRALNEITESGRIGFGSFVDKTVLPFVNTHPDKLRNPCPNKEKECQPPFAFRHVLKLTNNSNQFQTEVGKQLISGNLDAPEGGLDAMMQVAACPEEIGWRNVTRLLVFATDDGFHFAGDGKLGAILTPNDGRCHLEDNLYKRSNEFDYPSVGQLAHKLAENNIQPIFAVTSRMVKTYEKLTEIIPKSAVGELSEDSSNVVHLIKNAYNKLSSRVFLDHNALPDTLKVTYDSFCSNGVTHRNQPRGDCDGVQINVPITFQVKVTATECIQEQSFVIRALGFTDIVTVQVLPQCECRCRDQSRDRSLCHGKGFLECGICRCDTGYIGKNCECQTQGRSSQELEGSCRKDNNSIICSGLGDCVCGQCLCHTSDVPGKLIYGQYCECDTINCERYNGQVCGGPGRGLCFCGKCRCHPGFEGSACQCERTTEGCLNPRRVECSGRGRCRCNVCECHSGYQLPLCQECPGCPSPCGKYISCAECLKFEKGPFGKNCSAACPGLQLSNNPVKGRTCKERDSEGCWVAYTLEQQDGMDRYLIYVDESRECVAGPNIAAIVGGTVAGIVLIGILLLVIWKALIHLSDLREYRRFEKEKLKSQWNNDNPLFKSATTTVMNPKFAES
As to the kind of experiment: Antibody binding assay (FACS): anti-LFA-1 mAb (mouse IgG anti-human CD11a) binding to Molt3 T-cells after peptide incubation. The conditions noted are these: for Fluorescence, % change from control of the medium fluorescence intensity: mAb CD11a, average ± standard error of runs. In kind it is cell-based. The method, then: A 1 ml quantity of the Molt3 inoculum was warmed to 37° C. and transferred by pipette into about 25 ml of a growth culture medium including RPMI 1640 lymphocyte growth medium (Fisher Scientific of St. Louis, Miss.) mixed with 10% by volume fetal calf serum, 100 units/ml penicillin, 100 μg/ml streptomycin and 2 mM glutamine. The inoculated culture was incubated for three to four days at 37° C. under a normal atmosphere having about 5% CO2 added thereto. This culture was capable of being maintained indefinitely by siphoning away the top (non-cell containing) layer and adding 50 ml (or more) of growth culture medium at intervals of three to four days.
An aqueous buffer solution including Dulbecco's phosphate buffered saline and bovine serum albumin ("-PBS/BSA solution") was prepared for use, and included a mixture of 200 mg KH2 PO4, 1.15 g Na2 HPO4, 100 mg CaCl2, 200 mg KCl, 100 mg MgCl2.6H2 O, 8 g NaCl, with distilled water added to a final 1 liter volume at room temperature, thus, forming a "PBS" solution of pH 7.4 to which was added 0.5% by weight bovine serum albumin.
An aliquot of about 7 ml was removed from the incubated culture medium and subjected to washing with the PBS/BSA solution. The washing procedure was initiated by placing the aliquot in a centrifuge (Model GT422 from Jouan, distributed Piruscio & Assoc. of Manchester, Miss.) at 1400 rpm for 6.5 minutes to separate the cells from the growth medium. The supernatant fluid was decanted, a 5 ml portion of PBS/BSA solution was transferred by pipette into the pellet, and the mixture was again centrifuged as before. The resulting supernatant fluid was decanted and the cells from the pellet were resuspended in PBS/BSA solution at a titer of about 1×10^6 cells/ml. A 500 μl portion of the solution containing the resuspended cells was placed in a microcentrifuge (Marathon 13K/M from Fisher Scientific of St. Louis, Miss.) at 3500 rpm for six minutes, to provide a washed pellet.
[…] The cells were incubated with the peptide cocktail at 37° C. for 45 minutes.
After incubation with the peptide cocktail, several antibodies were successively mixed into the incubated solution. A 75 μl portion of anti-IgM solution (a mixture of 10 μl of goat anti-human IgM stock purchased from Jackson Immuno Research of Westgrove, Pa.; and 65 μl of PBS/BSA solution) was added to the peptide cocktail for blocking of nonspecific binding of the secondary antibody. The resulting mixture was incubated for 10 minutes on ice. About 0.1 μg of a primary antibody including mouse IgG anti-human CD11a (purified according to conventional protocols at the University of Kansas Department of Pharmacology and Toxicology from an American Type Culture hybridoma cell line having Catalogue Number HB-202) was next stirred into the mixture, which was then incubated for 30 minutes at room temperature. The incubated mixture was placed in a microcentrifuge at 3500 rpm for six minutes to remove the cells from the mixture, and the cell pellet was washed two times by adding 500 μl aliquots of PBS/BSA solution and microfuging to remove non-bound antibodies from the cells as before. The resulting washed pellet was resuspended in 100 μl of a secondary antibody cocktail including 5 μl of fluorescein isothiocyanate ("FITC") labeled goat anti-mouse IgG (from CALTAG of South San Francisco, Calif.) and 95 μl of PBS/BSA solution. The resulting solution was incubated for 30 minutes at room temperature in the dark.
The incubated solution including the secondary antibody cocktail was microfuged at 3500 rpm for six minutes to remove the cells from the solution, and the cell pellet was washed two times with 500 μl portions of PBS/BSA solution, as before, to remove unbound antibodies. […]

Data set [2] deals with Molt3 cells. As to the kind of experiment: Homotypic adhesion assay (MDHC-induced clumping of T-cells). The class given is cell-based, human. On the set-up: key to Homotypic Adhesion Amount: Any sample having a score of "+++" or "++++" is considered to have a significant ability to modulate T-cell binding interaction; Any sample having a score of "+++" or "++++" is considered to have a significant ability to modulate T-cell binding interaction. To be noted: 10 μM MDHC. The method, then: As before, the T-cells were Molt3 cells prepared in RPMI 1640 growth medium according to Example 2. An approximate 7 ml aliquot of the growth medium was centrifuged (Jouan Model GT422 at 1400 rpm for 6.5 minutes), and the supernatant fluid was decanted. The pellet was resuspended in the supernatant fluid at titer of about 1×10^6 cells/ml, with the excess supernatant fluid being retained for future resuspension of the peptides.
A 228 nmol quantity of the LJCRF-1 (Sequence ID No. 6) peptide described in Table 1 was diluted with the supernatant fluid to a 500 μl final volume, and filtered in microcentrifuge filter tubes (0.22 micron filter; 3500 rpm for 6 minutes). Serial dilution of the filtered peptide with supernatant fluid was conducted to yield five 125 μl peptide solutions to give respective concentrations of about 115 μM, 230 μM, 460 μM, 910 μM, and 1.82 mM. At each concentration, a 125 μl portion of the cell suspension was pipetted into each 125 μl portion of the peptide solutions to yield combined samples having a 250 μl volume. The 250 μl samples were seeded into individual wells in a 48-well tissue culture grade plate (from Costar of Cambridge, Md.) and incubated at 37° C. for 30 minutes. Each sample received 5 μl of 2,5-methyl dihydroxy cinnamate ("MDHC") for a 10 μM final concentration, and was subsequently incubated for about 10 hours at 37° C. MDHC induces intercellular clumping of human T-cells (Tibbetts, Butler, and Benedict, submitted) by activating the LFA/ICAM binding interaction between respective cells.
Pictures were taken of five random fields per sample using an Olympus photomicroscope having a 0.8 mm field at 400×magnification, and a 3.2 mm field of view at 100×magnification. The amount of clumping observed was quantified by determining the mean number of clumps per field ± a standard error.
FIGS. 5, 6, and 7 replicate photographs taken from exemplary peptide assays. FIG. 5 is a photograph of the control sample having no peptides and no MDHC added, from which essentially no clumping of cells is observed. […] Any sample having a score of "+++" or "++++" is considered to have a significant ability to modulate T-cell binding interaction. This is similar to results obtained by incubating similarly treated cells with antibody against either LFA or ICAM.
The homotypic adhesion assay assesses the actual ability of a candidate peptide to modulate the ability of T-cells to adhere with one another.

The target in the next data set is T2, ICAM-1 (CD54) (Homo sapiens, UniProt P05362).
T2 construct: host or cells: Molt3 human T-cell leukemia line
T2 sequence (P05362 28-532): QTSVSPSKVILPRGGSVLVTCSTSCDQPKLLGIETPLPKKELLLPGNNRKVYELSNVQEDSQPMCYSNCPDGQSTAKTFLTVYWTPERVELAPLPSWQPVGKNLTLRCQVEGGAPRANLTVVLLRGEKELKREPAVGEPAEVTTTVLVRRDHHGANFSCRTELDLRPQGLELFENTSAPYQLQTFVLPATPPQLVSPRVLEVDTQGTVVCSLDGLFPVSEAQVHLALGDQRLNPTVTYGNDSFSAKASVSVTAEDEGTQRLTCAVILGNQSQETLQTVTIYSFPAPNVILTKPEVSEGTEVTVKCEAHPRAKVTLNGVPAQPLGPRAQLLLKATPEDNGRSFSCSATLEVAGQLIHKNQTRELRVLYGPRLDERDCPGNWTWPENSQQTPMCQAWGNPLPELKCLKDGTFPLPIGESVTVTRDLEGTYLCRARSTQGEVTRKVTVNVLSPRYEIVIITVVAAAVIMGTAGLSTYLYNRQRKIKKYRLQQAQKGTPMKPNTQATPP
As to the kind of experiment: Antibody binding assay (FACS): anti-ICAM-1 mAb (mouse IgG anti-human CD54) binding to Molt3 T-cells after peptide incubation. The class given is cell-based. To be noted: mAb CD54; peptide 4550 μM; average ± standard error of runs.

Setting [3] is: peptide 4550 μM, negative = blocking.

Read-outs that look alike come from different tables or passages of the source.

Take “LJCRF-1: ICAM-1 based short-chain peptide, Sequence ID No. 6 (QTSVSPSKVILPRGGSVLVTG)”: the “MTT % Viability” value in the data set on Molt3 cells [1] (peptide 460 μM) is 93%; in the data set with Molt3 cells [1] (peptide 910 μM), 92%; with Molt3 cells [1] (peptide 1820 μM), 66%. In addition, the figures for the “Fluorescence, % change from control of the medium fluorescence intensity” value (“Fluorescence, % change from control” below) in the data set with LFA-1 (CD11a) (peptide 2275 μM) and in the data set with LFA-1 (CD11a) (setting [3]) were -12 ± 2% and -29 ± 3%, respectively. The substance further came in with a blocking efficiency in the data set with LFA-1 (CD11a) (single above-average run (FIGS. 2, 3), peptide 4550 μM, anti-CD11a) of 65%. Besides, the “Homotypic Adhesion Amount” value in the data set on Molt3 cells [2] (peptide 460 μM) and in the data set with Molt3 cells [2] (peptide 1820 μM) was “+++” throughout. In addition, the “Homotypic Adhesion Effect” value with Molt3 cells [2] (peptide 460 μM), in the data set with Molt3 cells [2] (peptide 910 μM) and in the data set on Molt3 cells [2] (peptide 1820 μM) was “Block” each time.
Consider “LJCRF-3: ICAM-1 derived short-chain peptide, Sequence ID No. 12 (KELLLPGNNRKVYELSNVQEDSQP)”, for which the “MTT % Viability” value in the data set on Molt3 cells [1] amounted to 38%. The “Fluorescence, % change from control” value with LFA-1 (CD11a) (setting [3]) was -13 ± 19%.
Take “LJCRF-5: LFA-1α derived short-chain peptide, Sequence ID No. 17 (GVDVDQDGETELIGAPLFYGEQRG)”: the “Fluorescence, % change from control” value with ICAM-1 (CD54) is given as -17%. In addition, the “MTT % Viability” value in the data set with Molt3 cells [1] (peptide 115 μM) came to 95%; in the data set with Molt3 cells [1] (peptide 230 μM) it was 84%; in the data set with Molt3 cells [1] (peptide 460 μM), 81%; in the data set with Molt3 cells [1] (peptide 910 μM) it was 52%; in the data set on Molt3 cells [1] (peptide 1820 μM), 20%. For the same substance, in the data set on Molt3 cells [1] (peptide 1820 μM), the “metabolic activity by MTT” value is “decrease in metabolic activity”. Further, the “Homotypic Adhesion Effect” value in the data set on Molt3 cells [2] (peptide 115 μM), in the data set on Molt3 cells [2] (peptide 230 μM), with Molt3 cells [2] (peptide 460 μM), with Molt3 cells [2] (peptide 910 μM) and in the data set with Molt3 cells [2] (peptide 1820 μM) was “Block” in each case. Moreover, the “Homotypic Adhesion Amount” value with Molt3 cells [2] (peptide 910 μM) and in the data set on Molt3 cells [2] (peptide 1820 μM) was “++++” throughout.
On to “LJCRF-6: LFA-1α (insert) based short-chain peptide, Sequence ID No. 18 (ITDGEATDSGNIDAAKDIIYIIGI)”, for which the “Fluorescence, % change from control” value with ICAM-1 (CD54) is recorded as -4%. Also, the “Homotypic Adhesion Effect” value in the data set with Molt3 cells [2] (peptide 910 μM) is recorded as “almost total inhibition”; with Molt3 cells [2] (peptide 1820 μM), “Block”. The “Homotypic Adhesion Amount” value in the data set with Molt3 cells [2] (peptide 1820 μM) is listed as “+++”.
Regarding “MC-1-80: ICAM-1 derived short-chain peptide, Sequence ID No. 9 (LPRGGSVLVTG)”, in the data set with Molt3 cells [1] (peptide 910 μM), the “metabolic activity / cellular respiration by MTT” value is given as “enhanced”.
Take “SC-3-223: LFA-1β derived peptide, identical to LJCRF-4 (Sequence ID No. 16), tested separately (DLSYSLDDLRNVKKLGGDLLRALNE)”: the “MTT % Viability” value is reported as 103% in the data set on Molt3 cells [1] (peptide 115 μM); 109% with Molt3 cells [1] (peptide 230 μM); 112% in the data set with Molt3 cells [1] (peptide 460 μM); 108% in the data set on Molt3 cells [1] (peptide 910 μM); 75% in the data set with Molt3 cells [1] (peptide 1820 μM). The “Homotypic Adhesion Effect” value with Molt3 cells [2] (peptide 115 μM), in the data set on Molt3 cells [2] (peptide 230 μM), in the data set on Molt3 cells [2] (peptide 460 μM), with Molt3 cells [2] (peptide 910 μM) and with Molt3 cells [2] (peptide 1820 μM) was “Block” in each case. The “Homotypic Adhesion Amount” value in the data set on Molt3 cells [2] (peptide 230 μM) is given as “+++”; in the data set on Molt3 cells [2] (peptide 460 μM) it was “+++”; in the data set with Molt3 cells [2] (peptide 910 μM), “++++”; in the data set on Molt3 cells [2] (peptide 1820 μM), “++++”.
